Patent publication US4831026A, “2-oxa-isocephem compounds, compositions containing same and processes of using” (Otsuka Pharmaceutical Co., Ltd., priority 1985, dated 1989)
Read-outs that look alike come from different tables or passages of the source.

Key:
M. morganii ATCC-25830 = assay: Antimicrobial activity test: MIC by the agar plate dilution method, M. morganii ATCC-25830; assay type: cell-based; details: inoculum 1×10^6 cells/ml
Experimental: (§1) In order to investigate the in vitro activity of the under-mentioned compounds against various bacteria, the minimal inhibitory concentration (MIC) values were determined by the agar plate dilution method [see Chemotherapy, 22, 1126-1128 (1974)].
(§2) Each test inoculum was adjusted to 1×10^6 cells/ml (O.D., 600 mμ: 0.07-0.16).

E. coli No. 29 = assay: Antimicrobial activity test: MIC by the agar plate dilution method, E. coli No. 29; assay type: cell-based; details: E. coli No. 29; inoculum 1×10^6 cells/ml
Experimental: as §1, §2

K. pneumoniae NCTC-9632 = assay: Antimicrobial activity test: MIC by the agar plate dilution method, K. pneumoniae NCTC-9632; assay type: cell-based; details: inoculum 1×10^6 cells/ml
Experimental: as §1, §2

S. aureus FDA-209-p = assay: Antimicrobial activity test: MIC by the agar plate dilution method, S. aureus FDA-209-p; assay type: cell-based, Staphylococcus aureus; details: inoculum 1×10^6 cells/ml
Experimental: as §1, §2

P. mirabilis 1287 = assay: Antimicrobial activity test: MIC by the agar plate dilution method, P. mirabilis 1287; assay type: cell-based; details: P. mirabilis 1287; inoculum 1×10^6 cells/ml
Experimental: as §1, §2

P. aeruginosa NCTC-10490 = assay: Antimicrobial activity test: MIC by the agar plate dilution method, P. aeruginosa NCTC-10490; assay type: cell-based; details: inoculum 1×10^6 cells/ml
Experimental: as §1, §2

S. marcescens IFO-12648 = assay: Antimicrobial activity test: MIC by the agar plate dilution method, S. marcescens IFO-12648; assay type: cell-based
Experimental: as §1, §2

[1] = S. marcescens IFO-12648, inoculum 1×10^6 cells/ml

Substance | MIC (M. morganii ATCC-25830) [µg/mL] | MIC (E. coli No. 29) [µg/mL] | MIC (K. pneumoniae NCTC-9632) [µg/mL] | MIC (S. aureus FDA-209-p) [µg/mL] | MIC (P. mirabilis 1287) [µg/mL] | MIC (P. aeruginosa NCTC-10490) [µg/mL] | MIC (S. marcescens IFO-12648) [µg/mL] | MIC (S. marcescens IFO-12648; [1]) [µg/mL]
Benzhydryl 7-[2-(2-tritylaminothiazol-4-yl)-2-(2fluoroethoxy)iminoacetamido-]-3-[(1,3,4-thiadiazol-2-yl)thiomethyl]-Δ^3 -O-2-isocephem-4-carboxylate (syn-isomer) [Example 48] | ≤ 0.025 | ≤ 0.025 | 0.2 | 0.78 | ≤ 0.025 | 6.25 | 0.39 | 
7-[2-(2-Formamidothiazol-4-yl)-2-ethoxyiminoacetamido]-3-[(1,3,4-thiadiazol-2-yl)thiomethyl-]-Δ^3 -O-2-isocephem-4-carboxylic acid (syn-isomer) [Example 31] | 0.05 | ≤ 0.025 | 0.1 | 0.39 | ≤ 0.025 | 25 | 0.39 | 
Benzhydryl (6S,7S)-7-[2-(2-aminothiazol-4-yl)-2-methoxyiminoacetamido]-3-[(1,3,4-thiadiazol-2-yl)thiomethyl]-Δ^3 -O-2-isocephem-4-carboxylate (syn-isomer) [Example 59] | ≤ 0.025 | ≤ 0.025 | ≤ 0.025 | 0.39 | ≤ 0.025 | 25 | 0.39 | 
Benzhydryl 7-[2-(2-tritylaminothiazol-4-yl)-2-[(1-tritylpyrazol-3-yl)methoxyiminoacetamido]-3-[(1,3,4-thiadiazol-2-yl)thiomethyl]-Δ^3 -O-2-isocephem-4-carboxylate (syn-isomer) [Example 23] | 0.1 | 0.2 | 0.1 | 6.25 | ≤ 0.025 | 12.5 | 0.39 | 
7-[2-(Thiazol-4-yl)-2-carboxymethoxyiminoacetamido]-Δ^3 -O-2-isocephem-4-carboxylic acid (syn-isomer) [No. 6] | 0.05 | 0.1 | 0.2 | 0.39 | ≤ 0.025 | 12.5 |  | 0.2
7-[2-(2-Trichloroacetamidothiazol-4-yl)-2-methoxyiminoacetamido]-3-[(carbamoyloxy)methyl]-Δ^3 -O-2-isocephem-4-carboxylic acid (syn-isomer) [Example 7] | ≤ 0.025 | 0.1 | 0.2 | 0.78 | ≤ 0.025 | 0.78 | 0.39 | 
7-[2-(2-Chloroacetamidothiazol-4-yl)-2-methoxyiminoacetamido]-3-[(1,4,5,6-tetrahydro-4-methyl-5,6-dioxo-1,2,4-triazin-3-yl)thiomethyl]-Δ^3 -O-2-isocephem-4-carboxylic acid (syn-isomer) [Example 17] | ≤ 0.025 | ≤ 0.025 | ≤ 0.025 | 0.2 | ≤ 0.025 | 6.25 |  | ≤ 0.025
Benzhydryl 7-[2-(2-tritylaminothiazol-4-yl)-2cyanomethyloxyiminoacetamido-]-3-[(1,3,4-thiadiazol-2-yl)thiomethyl]-Δ^3 -O-2-isocephem-4-carboxylate (syn-isomer) [Example 41] | 0.78 | 0.2 | 0.39 | 0.39 | 0.2 | 0.78 |  | 1.56
Benzyl7-[2-(2-aminothiazol-4-yl)-2-methoxyiminoacetamido]-3-[(carbamoyloxy)methyl]-Δ^3 -O-2-isocephem-4-carboxylate (syn-isomer) [Example 3] | ≤ 0.025 | 0.2 | 0.39 | 0.39 | ≤ 0.025 | 1.56 | 0.39 | 
7-[2-(2-Chloroacetamidothiazol-4-yl)-2-allyloxyiminoacetamido]-3-[(1,3,4-thiadiazol-2-yl)thiomethyl]-Δ^3 -O-2-isocephem-4-carboxylic acid (syn-isomer) [Example 15] | ≤ 0.025 | ≤ 0.025 | 0.1 | 0.39 | ≤ 0.025 | 0.78 |  | 0.1
